“And” between values parts separate entries of the source, which are not always exact repeats. Equal values may be shown once. Read-outs that look alike come from different tables or passages of the source.
Tests used:
[1] = β-carotene-linoleic acid assay (antioxidant); settings: mean ± SEM of three parallel measurements
Description: (§1) DMSO solutions of four different concentrations (12.5, 25, 50, and 100 μM) of the synthesized compound 1–26 were prepared. DMSO was used as a control, while BHA and α-TOC were used as antioxidant standards.

[2] = ABTS cation radical scavenging assay; settings: mean ± SEM of three parallel measurements
Description: as §1

[3] = DPPH radical scavenging assay; settings: mean ± SEM of three parallel measurements
Description: as §1

[4] = CUPRAC assay (Cu(II) reducing power); settings: concentration at 0.500 absorbance; mean ± SEM
Description: as §1

urease = urease (Canavalia ensiformis, UniProt P07374); test: biochemical
tyrosinase = format: biochemical; settings: mean ± SEM of three parallel measurements
[5] = biological target: T1, Acetylcholinesterase (AChE) (Electrophorus electricus, UniProt O42275); test: biochemical; settings: for IC50: mean ± SEM of three parallel measurements
T1 construct: Acetylcholinesterase (AChE) from electric eel; from tissue; host or cells: electric eel
Description: (§2) Anticholinesterase activity of all was performed according to the Ellman’s method using a 96-well microplate reader. Acetylcholinesterase (AChE) from electric eel and butyrylcholinesterase (BChE) from horse serum were used. Acetylthiocholine iodide and butyrylthiocholine chloride were utilized as substrates. DTNB (5,50-dithiobis(2-nitrobenzoic) acid was used as a coloring agent to measure the anticholinesterase activity.[43] Measurements were obtained in triplicate.

[6] = biological target: T2, butyrylcholinesterase (BChE) (Equus caballus, UniProt P81908); test: biochemical; settings: for IC50: mean ± SEM of three parallel measurements
T2 construct: butyrylcholinesterase (BChE) from horse serum; from tissue; host or cells: horse serum
Description: as §2

[7] = urease activity IC50, mean ± SEM of three parallel measurements
[8] = Selectivity index: IC50 for BChE/IC50 for AChE
[9] = Selectivity index: IC50 for AChE/IC50 for BChE

Chain of urease (P07374 whole entry, looked up): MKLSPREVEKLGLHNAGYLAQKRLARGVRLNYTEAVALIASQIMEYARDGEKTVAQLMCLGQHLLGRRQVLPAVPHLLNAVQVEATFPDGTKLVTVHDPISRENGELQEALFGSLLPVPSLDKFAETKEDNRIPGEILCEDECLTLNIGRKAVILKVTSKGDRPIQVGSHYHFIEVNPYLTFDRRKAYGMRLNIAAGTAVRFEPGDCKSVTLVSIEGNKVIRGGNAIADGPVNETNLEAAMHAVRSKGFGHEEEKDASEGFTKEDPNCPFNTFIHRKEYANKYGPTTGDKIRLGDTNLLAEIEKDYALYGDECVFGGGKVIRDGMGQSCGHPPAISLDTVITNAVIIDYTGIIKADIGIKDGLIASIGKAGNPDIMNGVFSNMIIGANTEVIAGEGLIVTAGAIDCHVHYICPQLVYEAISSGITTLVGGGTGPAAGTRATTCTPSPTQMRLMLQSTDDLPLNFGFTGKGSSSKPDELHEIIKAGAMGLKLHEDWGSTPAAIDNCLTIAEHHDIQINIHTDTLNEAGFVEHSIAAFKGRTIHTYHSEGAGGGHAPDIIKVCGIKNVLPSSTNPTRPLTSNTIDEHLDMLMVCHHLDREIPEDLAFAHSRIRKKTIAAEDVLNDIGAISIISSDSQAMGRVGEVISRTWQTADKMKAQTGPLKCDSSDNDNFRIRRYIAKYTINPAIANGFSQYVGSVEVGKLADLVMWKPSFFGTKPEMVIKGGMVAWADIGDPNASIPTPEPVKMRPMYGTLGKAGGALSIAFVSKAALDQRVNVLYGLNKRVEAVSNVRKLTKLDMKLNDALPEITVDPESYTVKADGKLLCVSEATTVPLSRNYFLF
T2 sequence (P81908 whole entry): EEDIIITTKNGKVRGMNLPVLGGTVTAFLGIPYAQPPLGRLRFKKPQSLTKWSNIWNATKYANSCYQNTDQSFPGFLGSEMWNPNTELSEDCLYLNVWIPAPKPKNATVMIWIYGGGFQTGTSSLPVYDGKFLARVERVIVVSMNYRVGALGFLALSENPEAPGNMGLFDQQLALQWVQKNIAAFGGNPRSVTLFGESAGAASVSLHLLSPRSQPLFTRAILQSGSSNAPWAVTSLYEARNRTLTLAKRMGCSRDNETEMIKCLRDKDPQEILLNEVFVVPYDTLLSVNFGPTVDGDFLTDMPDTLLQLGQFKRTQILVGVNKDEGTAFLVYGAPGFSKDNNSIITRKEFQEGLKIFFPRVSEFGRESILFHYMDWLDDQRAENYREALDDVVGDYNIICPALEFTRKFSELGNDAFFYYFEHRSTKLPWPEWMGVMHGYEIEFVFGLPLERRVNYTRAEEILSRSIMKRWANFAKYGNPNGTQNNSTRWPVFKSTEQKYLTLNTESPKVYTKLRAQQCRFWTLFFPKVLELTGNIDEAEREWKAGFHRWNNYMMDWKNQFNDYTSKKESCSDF
T1 sequence (O42275 24-633): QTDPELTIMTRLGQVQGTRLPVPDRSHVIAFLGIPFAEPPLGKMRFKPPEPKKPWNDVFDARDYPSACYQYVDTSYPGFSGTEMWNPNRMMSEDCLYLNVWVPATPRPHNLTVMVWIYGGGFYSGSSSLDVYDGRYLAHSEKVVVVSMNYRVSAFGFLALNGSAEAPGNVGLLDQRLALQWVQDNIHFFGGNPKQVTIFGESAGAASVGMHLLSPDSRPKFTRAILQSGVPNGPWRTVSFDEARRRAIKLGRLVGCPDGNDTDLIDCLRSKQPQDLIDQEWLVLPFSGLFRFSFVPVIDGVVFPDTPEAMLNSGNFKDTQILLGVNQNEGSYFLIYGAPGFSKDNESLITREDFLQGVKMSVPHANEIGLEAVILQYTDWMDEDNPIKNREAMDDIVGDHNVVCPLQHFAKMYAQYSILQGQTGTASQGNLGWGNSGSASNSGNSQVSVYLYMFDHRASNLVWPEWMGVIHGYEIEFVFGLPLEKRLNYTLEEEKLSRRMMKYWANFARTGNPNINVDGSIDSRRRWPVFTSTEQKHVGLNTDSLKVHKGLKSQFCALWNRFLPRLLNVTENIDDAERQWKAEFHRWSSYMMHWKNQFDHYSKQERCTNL

SMILES	IC50 [1] [µM]	IC50 [2] [µM]	IC50 [3] [µM]	CUPRAC assay A0.5 [4] [µM]	IC50 (urease; [7])	IC50 (tyrosinase) [µM]	SI for AChE [5, 8]	IC50 [5] [µM]	SI for BChE [6, 9]	IC50 [6] [µM]	SI for AChE [5]	SI for BChE [6]	IC50 (urease; mean ± SEM of three parallel measurements, read-out: urease activity IC50) [µM]
Cc1c(C)c2c(c(C)c1O)CC[C@@](C)(CCC[C@H](C)CCC[C@H](C)CCCC(C)C)O2 [α-TOC, reference compound]	4.5 ± 0.09	4.87 ± 0.45	12.26 ± 0.07	40.48 ± 0.02									
COc1cc(C=C2SC(=NN3CCOCC3)N(c3ccccc3)C2=O)cc(OC)c1OC [Compound 8, 5-(3,4,5-(Trimethoxy)benzylidene)-2-(morpholinoimino)-3-phenylthiazolidin-4-one]	36.5 ± 0.39	32.95 ± 0.28	44.06 ± 0.21	35.13 ± 0.03	53.4 ± 0.64 µM	25700 ± 390	1.41	33.61 ± 0.33	0.71	47.3 ± 0.77			
O=C1C(=Cc2ccc(N3CCCC3)cc2)SC(=NN2CCOCC2)N1c1ccccc1 [Compound 12, 2-(Morpholinoimino)-3-phenyl-5-(4-(pyrrolidin-1-yl)benzylidene)thiazolidine-4-one]	16.2 ± 0.66	24.7 ± 0.25	26.1 ± 0.44	20.77 ± 0.03	24.2 µM and 23.6 µM	24800 ± 770	1.40	17.4 ± 0.22	0.71	24.4 ± 0.51			
O=C1C(=Cc2ccc(N(CCCl)CCCl)cc2)SC(=NN2CCOCC2)N1c1ccccc1 [Compound 11]	11.9 ± 1.3	23.2 ± 0.34	24.6 ± 0.8	11.82 ± 0.00	31.5 ± 0.49 µM	23400 ± 500		21.45 ± 0.06		32.8 ± 0.48	1.53	0.66	
O=C1C(=Cc2ccc3[nH]ccc3c2)SC(=NN2CCOCC2)N1c1ccccc1 [Compound 25, 5-((1H-Indole-5-yl)methylene)-2-(morpholinoimino)-3-phenylthiazolidin-4-one]	33.6 ± 0.73	34.05 ± 0.27	38.2 ± 0.88	39.50 ± 0.01	21.7 ± 0.06 µM	8400 ± 640	1.29	19.8 ± 0.5	0.78	25.5 ± 0.78			
O=C1C(=Cc2ccc(N3CCCCC3)cc2)SC(=NN2CCOCC2)N1c1ccccc1 [Compound 13, 2-(Morpholinoimino)-3-phenyl-5-(4-(piperidin-1-yl)benzylidene)thiazolidine-4-one]	20.2 ± 0.14	27.16 ± 0.06	29 ± 0.29	23.66 ± 0.02	30.3 ± 0.95 µM	26200 ± 1110	1.61	20 ± 0.37	0.62	32.21 ± 0.11			
Cc1ccsc1C=C1SC(=NN2CCOCC2)N(c2ccccc2)C1=O [Compound 17, 5-((3-Methylthiophene-2-yl)methylene)-2-(morpholinoimino)-3-phenylthiazolidin-4-one]	36 ± 0.58	33.2 ± 0.65	36 ± 1	27.65 ± 0.01	40.22 ± 0.12 µM	3220 ± 700	1.43	34.8 ± 0.53	0.70	49.8 ± 1.01			
O=C1C(=Cc2ccc(Br)cc2)SC(=NN2CCOCC2)N1c1ccccc1 [Compound 4, 5-(4-Bromobenzylidene)-2-(morpholinoimino)-3-phenylthiazolidine-4-one]	34.7 ± 0.15	23.7 ± 0.66	40.2 ± 0.77	21.18 ± 0.00	56.11 ± 0.22 µM	28400 ± 900	1.43	27.7 ± 0.51	0.70	39.6 ± 0.74			
O=C1CSC(=NN2CCOCC2)N1c1ccccc1 [Compound 2, 2-(Morpholinoimino)-3-phenylthiazolidin-4-one]	40.43 ± 0.11	31.66 ± 0.13	101.9 ± 0.61	36.35 ± 0.00	65.4 ± 0.67 µM	30200 ± 610	1.50	44.3 ± 0.75	0.67	66.44 ± 0.41			
O=C1C(=Cc2ccc(O)cc2)SC(=NN2CCOCC2)N1c1ccccc1 [Compound 5, 5-(4-Hydroxybenzaldehyde)-2-(morpholinoimino)-3 phenylthiazolidine-4-one]	36.2 ± 0.46	28.74 ± 0.19	42.8 ± 0.53	24.48 ± 0.02	55.6 ± 0.81 µM	28000 ± 350	1.38	27 ± 0.48	0.73	37.1 ± 0.57			
O=C1C(=Cc2ccsc2)SC(=NN2CCOCC2)N1c1ccccc1 [Compound 16, 2-(Morpholinoimino)-3-phenyl-5-(thiophen-3-ylmethylene) thiazolidine-4-one]	31.4 ± 1.01	35.7 ± 1.61	36.21 ± 0.17	16.94 ± 0.01	42 ± 0.81 µM	24080 ± 150	1.46	29 ± 1.03	0.69	42.5 ± 0.18			
Cn1cccc1C=C1SC(=NN2CCOCC2)N(c2ccccc2)C1=O [Compound 19]	30.8 ± 0.47	29.88 ± 0.2	34.45 ± 0.05	25.67 ± 0.00	18.2 ± 0.5 µM	19280 ± 90	1.44	20.6 ± 0.55	0.69	29.7 ± 0.72			
O=C1C(=Cc2ccc([N+](=O)[O-])cc2)SC(=NN2CCOCC2)N1c1ccccc1 [Compound 9, 5-(4-Nitrobenzylidene)-2-(morpholinoimino)-3-phenylthiazolidin-4-one]	30.44 ± 0.17	25.2 ± 0.37	32.3 ± 0.55	21.87 ± 0.01	51.7 ± 0.12 µM	25420 ± 120	1.35	29.8 ± 0.81	0.74	40.19 ± 0.19			
O=C1C(=Cc2nccs2)SC(=NN2CCOCC2)N1c1ccccc1 [Compound 20]	32.8 ± 0.33	31.3 ± 0.77	35.2 ± 0.6	36.95 ± 0.03	16.8 ± 0.19 µM	21400 ± 310	1.26	26.8 ± 0.77	0.79	34.05 ± 0.06			
COc1ccc(C=C2SC(=NN3CCOCC3)N(c3ccccc3)C2=O)cc1OC [Compound 7, 5-(3,4-Dimethoxy-benzylidene)-2-(morpholinoimino)-3-phenylthiazolidin-4-one]	38.24 ± 0.13	31.55 ± 0.22	43.91 ± 0.29	34.50 ± 0.01	54.3 ± 0.62 µM	27720 ± 240	1.34	30.4 ± 0.47	0.75	40.88 ± 0.16			
O=C1C(=Cc2ccc[nH]2)SC(=NN2CCOCC2)N1c1ccccc1 [Compound 18, 5-((1H-Pyrrol-2-yl)methylene)-2-(morpholinoimino)-3-phenylthiazolidin-4-one]	33.62 ± 0.04	31.04 ± 0.17	35.07 ± 0.03	26.60 ± 0.02	20.2 ± 0.77 µM	16000 ± 410	1.54	21.4 ± 0.92	0.65	32.9 ± 0.75			
O=C1C(=Cc2c[nH]c3ccccc23)SC(=NN2CCOCC2)N1c1ccccc1 [Compound 24, 5-((1H-Indol-3-yl)methylene)-2-(morpholinoimino)-3-phenylthiazolidin-4-one]	27.73 ± 0.23	30 ± 1.01	33.24 ± 0.21	30.04 ± 0.02	23.6 µM and 22.5 µM	7210 ± 270	1.32	19.5 ± 0.29	0.76	25.7 ± 0.69			
Cc1cc(C(C)(C)C)c(O)c(C(C)(C)C)c1 [BHT, butylated hydroxytoluene, reference compound]	2.34 ± 0.09	2.91 ± 0.55	55 ± 0.99	3.80 ± 0.02									
S=C(Nc1ccccc1)NN1CCOCC1 [Compound 1, 1-Morpholino-3-phenylthiyourea]	79.37 ± 0.38	48.9 ± 0.78	253.4 ± 0.6	45.18 ± 0.01	82.54 ± 0.29 µM	35130 ± 70	0.91	130 ± 0.18	1.10	118.5 ± 0.34			
COc1ccc(C=C2SC(=NN3CCOCC3)N(c3ccccc3)C2=O)cc1 [Compound 6, 5-(4-(Methoxy)benzylidene)-2-(morpholinoimino)-3-phenylthiazolidin-4-one]	37.07 ± 0.22	30.6 ± 0.05	43.46 ± 0.14	32.68 ± 0.01	50.78 ± 0.08 µM	27990 ± 170	1.27	29 ± 0.64	0.79	36.81 ± 0.19			
NC(N)=S [thiourea, reference compound]													24.2 ± 0.3

Reference: paper PMC10586451, “Design, Synthesis, Pharmacological Activities, Structure–Activity Relationship, and In Silico Studies of Novel 5-Substituted-2-(morpholinoimino)-thiazolidin-4-ones” (ACS Omega, 2023)
